Assay results taken from patent US10851067B2, “Kv7 channel activators compositions and methods of use” (Knopp Biosciences LLC, priority 2018, dated 2020).

target: Kv7.2/7.3 (Homo sapiens, UniProt O43525+O43526); assay: Kv7.2/7.3 Thallium Flux Assay; assay type: cell-based; design: host or cells: HEK cells, tetracycline-inducible expression; conditions: read-out: Kv7.2/7.3 Activity: EC50 of Kv7.2/Kv7.3 activation
Source text: The Thallium Flux Assay is used as a surrogate indicator of potassium channel activity.
The experimental protocol was adapted from the FluxOR™ II Green Potassium Ion Channel Assay User Guide (Pub. No. MAN0016084, Invitrogen). Conditions were optimized for the Kv7.2/7.3 cell line.
The hKV7.2/7.3 cell line was obtained from Chantest (Cleveland, Ohio 44128) cat. #CT6147.
Kv7.2/7.3 cells were maintained in a media containing DMEM/F12; 50/50 (GIBCO cat. #11330), 10% Fetal Bovine Serum (FBS) (GIBCO cat. #26140), 100 units/mL Penicillin-Streptomycin (GIBCO cat. #15140), 0.005 mg/ml Blasticidin (SIGMA 15205), 0.5 mg/mL Geneticin (GIBCO cat. #10131), and 0.1 mg/mL Zeocin (GIBCO cat. #R25001). One day prior to experimentation, cells were plated in 96 well clear bottom plates (Corning cat. #353219) in a media without Blasticidin, Geneticin, or Zeocin. Channel expression was induced by adding tetracycline (Bioline cat. #BIO87030) at a final concentration of 10 ng/mL.
The test compound is diluted in a mixture of 0.1% DMSO/extracellular solution with an eight-point concentration range from 0.014 μM to 30 μM. Serial dilutions were made on a Biomek NXP (BECKMAN COULTER).
Measurement and Data Analysis:
A plate reader (Enspire, Perkin Elmer) is used to characterize the ion-channel modulating properties of novel compounds using an excitation wavelength of 475 nm and an emission wavelength of 530 nm. After a 15 sec baseline measurement, the stimulus buffer containing thallium and potassium is injected. A final endpoint measure is taken after 90 sec. Responses are normalized to positive control (retigabine, 30 µM max). Mean normalized responses at each concentration tested are fit to the standard Hill equation to generate an EC50 and maximal response.

| EC50 [µM] | Compound |
| --- | --- |
| < 1 | CC1(n2c(NC(=O)CC3(C(F)(F)F)CC3)nc3cc(F)c(F)cc32)CCC1 [Example 538, N-(5,6-difluoro-1-(1-methylcyclobutyl)-1H-benzo[d]imidazol-2-yl)-2-(1-(trifluoromethyl)cyclopropyl)acetamide] |
| < 1 | CC1(n2c(NC(=O)CC3CC(F)(F)C3(F)F)nc3cc(F)ccc32)CCC1 (single isomer, unassigned) [Example 526, N-(5-fluoro-1-(1-methylcyclobutyl)-1H-benzo[d]imidazol-2-yl)-2-(2,2,3,3-tetrafluorocyclobutyl)acetamide] |
| < 1 | CC1(n2c(NC(=O)CC3CC(F)(F)C3(F)F)nc3cc(F)cc(C#N)c32)CCC1 (single isomer, unassigned) [Example 546, N-(7-cyano-5-fluoro-1-(1-methylcyclobutyl)-1H-benzo[d]imidazol-2-yl)-2-(2,2,3,3-tetrafluorocyclobutyl)acetamide] |
| < 1 | CC(C)(C)n1c(NC(=O)CC2CC(F)(F)C2(F)F)nc2ccc(F)c(F)c21 (single isomer, unassigned) [Example 509, N-(1-(tert-butyl)-6,7-difluoro-1H-benzo[d]imidazol-2-yl)-2-(2,2,3,3-tetrafluorocyclobutyl)acetamide] |
| < 1 | CC(C)(CC(=O)Nc1nc2cc(F)ccc2n1C1(C)CCC1)C(F)F [Example 524, 4,4-difluoro-N-(5-fluoro-1-(1-methylcyclobutyl)-1H-benzo[d]imidazol-2-yl)-3,3-dimethylbutanamide] |
| < 1 | CC1(n2c(NC(=O)CC3CC(F)(F)C3(F)F)nc3ccc(F)c(F)c32)CCC1 (single isomer, unassigned) [Example 513, N-(6,7-difluoro-1-(1-methylcyclobutyl)-1H-benzo[d]imidazol-2-yl)-2-(2,2,3,3-tetrafluorocyclobutyl)acetamide] |
| < 1 | CC(C)(O)c1ccc2nc(NC(=O)CC34CC(C3)C4)n(C3(C)CCC3)c2c1 [Example 511, 2-(bicyclo[1.1,1]pentan-1-yl)-N-(6-(2-hydroxypropan-2-yl)-1-(1-methylcyclobutyl)-1H-benzo[d]imidazol-2-yl)acetamide] |
| < 1 | CC1(n2c(NC(=O)CC3CC(F)(F)C3(F)F)nc3cc(F)ccc32)CCC1 (single isomer, unassigned) [Example 525, N-(5-fluoro-1-(1-methylcyclobutyl)-1H-benzo[d]imidazol-2-yl)-2-(2,2,3,3-tetrafluorocyclobutyl)acetamide] |
| 1 to 3 | CC(C(=O)Nc1nc2c(F)cc(C(C)(C)O)cc2n1C1CCC1)C1(C(F)(F)F)CC1 (single isomer, unassigned) [Example 508, N-(1-cyclobutyl-4-fluoro-6-(2-hydroxypropan-2-yl)-1H-benzo[d]imidazol-2-yl)-2-(1-(trifluoromethyl)cyclopropyl)propanamide] |
| < 1 | CC(C)(CC(=O)Nc1nc2cc(F)cc(C#N)c2n1C1(C)CCC1)C1CC1 [Example 547, N-(7-cyano-5-fluoro-1-(1-methylcyclobutyl)-1H-benzo[d]imidazol-2-yl)-3-cyclopropyl-3-methylbutanamide] |
| < 1 | CC(C)(O)c1cc(F)c2nc(NC(=O)CC3CC(F)(F)C3(F)F)n(C3(C)CCC3)c2c1 (single isomer, unassigned) [Example 500, N-(4-fluoro-6-(2-hydroxypropan-2-yl)-1-(1-methylcyclobutyl)-1H-benzo[d]imidazol-2-yl)-2-(2,2,3,3-tetrafluorocyclobutyl)acetamide] |

Continued, molecule first:

| Compound | EC50 [µM] |
| --- | --- |
| CC1(n2c(NC(=O)CC(C)(C)C(F)(F)F)nc3c(F)cc(C#N)cc32)CCC1 [Example 486, N-(6-cyano-4-fluoro-1-(1-methylcyclobutyl)-1H-benzo[d]imidazol-2-yl)-4,4,4-trifluoro-3,3-dimethylbutanamide] | < 1 |
| [2H]C([2H])([2H])C(CC(=O)Nc1nc2c(F)cc(C#N)cc2n1C1(C)CCC1)(C([2H])([2H])[2H])C([2H])([2H])[2H] [Example 521, N-(6-cyano-4-fluoro-1-(1-methylcyclobutyl)-1H-benzo[d]imidazol-2-yl)-3,3-bis(methyl-d3)butanamide] | < 1 |
| CC(C)(C)CC(=O)Nc1nc2ccc(C3(O)CCC3)c(OC(F)(F)F)c2n1C1CCC1 [Example 487, N-(1-cyclobutyl-6-(1-hydroxycyclobutyl)-7-(trifluoromethoxy)-1H-benzo[d]imidazol-2-yl)-3,3-dimethylbutanamide] | < 1 |
| CC(C)(CC(=O)Nc1nc2cc(F)c(F)cc2n1C1(C)CCC1)C(F)F [Example 533, N-(5,6-difluoro-1-(1-methylcyclobutyl)-1H-benzo[d]imidazol-2-yl)-4,4-difluoro-3,3-dimethylbutanamide] | < 1 |
| CC1(n2c(NC(=O)CC3(C(F)(F)F)CC3)nc3cc(F)ccc32)CCC1 [Example 527, N-(5-fluoro-1-(1-methylcyclobutyl)-1H-benzo[d]imidazol-2-yl)-2-(1-(trifluoromethyl)cyclopropyl)acetamide] | < 1 |
| COc1cc(C#N)cc2c1nc(NC(=O)C13CCC(C1)C3)n2C(C)(C)C [Example 510, N-(1-(tert-butyl)-6-cyano-4-methoxy-1H-benzo[d]imidazol-2-yl)bicyclo[2.1.1]hexane-1-carboxamide] | 1 to 3 |
| CC(C)(C)n1c(NC(=O)CC2CC(F)(F)C2(F)F)nc2cc(F)ccc21 (single isomer, unassigned) [Example 528, N-(1-(tert-butyl)-5-fluoro-1H-benzo[d]imidazol-2-yl)-2-(2,2,3,3-tetrafluorocyclobutyl)acetamide] | < 1 |
| COc1cc(C#N)cc2c1nc(NC(=O)CC1CC(F)(F)C1(F)F)n2C(C)(C)C (stereo not shown) [Example 514, N-(1-(tert-butyl)-6-cyano-4-methoxy-1H-benzo[d]imidazol-2-yl)-2-(2,2,3,3-tetrafluorocyclobutyl)acetamide] | < 1 |
| CC(C)(C)CC(=O)Nc1nc2ccc(C(C)(C)O)c(OC(F)(F)F)c2n1C1CCC1 [Example 501, N-(1-cyclobutyl-6-(2-hydroxypropan-2-yl)-7-(trifluoromethoxy)-1H-benzo[d]imidazol-2-yl)-3,3-dimethylbutanamide] | 1 to 3 |
| CC1(n2c(NC(=O)CC3(C(F)(F)F)CC3)nc3cc(F)cc(F)c32)CCC1 [Example 522, N-(5,7-difluoro-1-(1-methylcyclobutyl)-1H-benzo[d]imidazol-2-yl)-2-(1-(trifluoromethyl)cyclopropyl)acetamide] | < 1 |
| CC(C(=O)Nc1nc2c(F)cc(C(C)(C)O)cc2n1C1CCC1)C(C)(C)C(F)(F)F (single isomer, unassigned) [Example 515, N-(1-cyclobutyl-4-fluoro-6-(2-hydroxypropan-2-yl)-1H-benzo[d]imidazol-2-yl)-4,4,4-trifluoro-2,3,3-trimethylbutanamide] | < 1 |
| CC(C)(C)CC(=O)Nc1nc2ccc(F)c(Br)c2n1C1(C)CCC1 [Example 550, N-(7-bromo-6-fluoro-1-(1-methylcyclobutyl)-1H-benzo[d]imidazol-2-yl)-3,3-dimethylbutanamide] | < 1 |
| CC1(n2c(NC(=O)CC3CC(F)(F)C3(F)F)nc3cc(F)c(F)cc32)CCC1 (single isomer, unassigned) [Example 499, N-(5,6-difluoro-1-(1-methylcyclobutyl)-1H-benzo[d]imidazol-2-yl)-2-(2,2,3,3-tetrafluorocyclobutyl)acetamide] | < 1 |
| CC(C(=O)Nc1nc2ccc(C(C)(C)O)cc2n1C1(C)CCC1)C(C)(C)C(F)(F)F (single isomer, unassigned) [Example 492, 4,4,4-trifluoro-N-(6-(2-hydroxypropan-2-yl)-1-(1-methylcyclobutyl)-1H-benzo[d]imidazol-2-yl)-2,3,3-trimethylbutanamide] | < 1 |
| CC1(n2c(NC(=O)CC3CC(F)(F)C3(F)F)nc3ccc(F)c(C#N)c32)CCC1 (single isomer, unassigned) [Example 537, N-(7-cyano-6-fluoro-1-(1-methylcyclobutyl)-1H-benzo[d]imidazol-2-yl)-2-(2,2,3,3-tetrafluorocyclobutyl)acetamide] | < 1 |
| CC1(n2c(NC(=O)CC3(C(F)(F)F)CC3)nc3cc(F)c(F)c(F)c32)CCC1 [Example 534, N-(5,6,7-trifluoro-1-(1-methylcyclobutyl)-1H-benzo[d]imidazol-2-yl)-2-(1-(trifluoromethyl)cyclopropyl)acetamide] | < 1 |
| CC(C(=O)Nc1nc2cc(F)c(F)cc2n1C1(C)CCC1)C1(C(F)(F)F)CC1 (single isomer, unassigned) [Example 540, N-(5,6-difluoro-1-(1-methylcyclobutyl)-1H-benzo[d]imidazol-2-yl)-2-(1-(trifluoromethyl)cyclopropyl)propanamide] | < 1 |
